# System: HRV-A16
# Experiment: Anti-viral effect: inhibition of HRV-A16 replication (viral RNA)
# Format: cell-based, human rhinovirus
# Settings: applied 1 h before infection; change in viral RNA; fully differentiated human airway epithelial cells
# Experimental: The example 1 composition is tested according to the test of evaluation of the potential activity against HRV-A16 (a rhinovirus responsible for colds) on fully differentiated human airway epithelial cells culture. The compositions are first applied before infection for one hour and the replication is carried out for 4 hours. 3 rinsing steps with the formulations are carried out. The remaining is collected and the RNA is dosed after cell lysis. The same collecting step is carried out 24 hours after and the same dosing step is carried out. The percentage expressed the changes in viral RNA, resulting in the % of inhibition of HRV-A16 replication, leading to the anti-viral efficacy. The tested composition is tested against rupintrivir (a known antiviral compound, providing an almost complete response).
smiles,measurement,value
"CCOC(=O)/C=C/[C@H](C[C@@H]1CCNC1=O)NC(=O)[C@@H](CC(=O)[C@@H](NC(=O)c1cc(C)on1)C(C)C)Cc1ccc(F)cc1 [Rupintrivir, rupintrivir]",Inhibition (%) of HRV-A16 replication,99.62%

# From US20170274083A1, “NASAL COMPOSITION HAVING ANTI-VIRAL PROPERTIES” (SOFIBEL S.A.S.-A COMPANY ULTIMATELY OWNED BY CHURCH & …, priority 2014, published 2017)
